Assay results from patent US6511811B1, “Protein kinase C antagonist related to insulin receptor” (The Regents of the University of California, priority 1995, dated 2003).
Ends that are not written are not given here.

Assays:
[1] = system: insulin receptor kinase activity; conditions: incubation of cells with the inhibitor; Mosthaf et al.; cited from earlier work
HIRcB cells [2] = test: Insulin-stimulated DNA synthesis (BrDU incorporation) with PKC inhibitors; assay type: cell-based, Rat; conditions: microinjection of the inhibitor peptide, high glucose 25 mM; FIG. 11
Description: HIRcB or ΔCT cells were cultured on acid-washed glass coverslips, grown to semi-confluence, and then starved in serum-free DME with 1 mM glucose. The peptide was dissolved in microinjection buffer containing 5 mM NaPO4 and 100 mM KCl, pH 7.4. The cells were microinjected with the PKC inhibitor peptide using glass capillary needles. Approximately 10 femtoliters of this solution was introduced into each cell. The injection included 1×10^6 molecules of IgG as marker for microinjection.
Two hours after microinjection, cells were incubated with BrDU plus various concentrations of growth factors for 16 h at 37° C. The cells were fixed with acid alcohol (90% ethanol, 5% acetic acid) for 20 min at 22° C., and then incubated with mouse monoclonal anti-BrDU antibody for 1 h at 22° C. […] After coverslips were mounted, the cells were analyzed and photographed with an Axiophot fluorescence microscope (Zeiss). […]
The effects of high glucose upon insulin-induced DNA synthesis were examined by first exposing cells to high glucose for 1 h, and then to insulin and BrDU for an additional 18 h. High glucose decreased DNA synthesis in insulin-stimulated cells by 30%, as measured by BrDU incorporation (FIG. 10).

insulin receptor = test: 32P labelling and two-dimensional tryptic phosphopeptide analysis of insulin receptor; assay type: cell-based, human; conditions: stimulation of 32P-labelled HIRcB cells; FIG. 8
Description: HIRcB cells were serum-starved for 16 h and then incubated in phosphate-free DMEM containing 2 mCi/ml ^32P-orthophosphate for 3 h. The cells were then stimulated with high glucose (25 mM) or insulin as indicated. The cells were lysed, and the insulin receptor was immunoprecipitated using […] antibody 83-14 as described. The washed immunoprecipitates were analyzed by SDS electrophoresis. The labeled β-subunit was visualized by autoradiography, excised from the gels and recovered by electroelution.
Polyacrylamide-gel pieces containing ^32P-labeled IR and IRS-1 following in vitro phosphorylation were electroeluted in 20 mM Tris-HCl, pH 8.0, 2 mM EDTA, 0.1% SDS, and 0.1% 2-mercaptoethanol for 4 h. Eluted protein was precipitated with four volumes of acetone at −80° C. for 60 min followed by centrifugation at room temperature for 10 min at 10,000 g. The pellet was dried and digested with 10 μg of TPCK-treated trypsin (Worthington Diagnostic Systems, Freehold, N.J.) in 100 μl of 100 mM N-ethylmorpholine acetate (NMA), pH 8.2, for 24 h at 37° C. A further 10 μg of TPCK-treated trypsin was added and digestion continued for 12 h. The peptides were lyophilized, resuspended with water, and re-lyophilized at least three times. The ^32P-labeled tryptic peptides were then resuspended in 5 μl of electrophoresis buffer and spotted onto thin layer cellulose plates. […]

HIRcB cells [3] = test: Microinjection of insulin receptor-derived peptides, insulin-stimulated DNA synthesis (BrDU incorporation); assay type: cell-based, Rat; conditions: FIG. 13; for Insulin-stimulated DNA synthesis: high glucose (25 mM); for Insulin-stimulated DNA synthesis / DNA synthesis in insulin-stimulated cells: peptide 10 mM microinjected, 100 ng/ml insulin; for DNA synthesis in insulin-stimulated cells: normal glucose (5 mM)
Description: HIRcB cells were grown to sub-confluence on glass coverslips in D-MEM medium containing normal (5 mM) or high (25 mM) glucose and rendered quiescent by serum deprivation for 24 h. Synthetic cyclo-peptides were derived from the human insulin receptor, containing sequence […] (SEQ ID NO:5) (Serine-1035) and […] (SEQ ID NO:1) (Serine-1270) were synthesized using methods well known in the art. The peptides were dissolved in microinjection buffer containing 5 mM NaPO4 and 100 mM KCl, pH 7.2, to a final concentration of 10 mM. All microinjected reagents contained rabbit IgG (5 mg/ml) to allow the identification […] cells. Samples were microinjected into the cell cytoplasm using an automated microinjection system at a typical needle pressure of about 100 hectopascals resulting in the introduction of 10^5 molecules of IgG.
Approximately 1 h after microinjection, the cells were stimulated with 100 ng/ml insulin and […] BrDU was added. Cells were incubated at 37° C. for an additional 16 h, and then fixed and stained using a monoclonal anti-BrDU antibody. Injected cells were identified with fluorescein isothiocyanate-conjugated donkey anti-rabbit IgG. Nuclear BrDU incorporation was detected with tetramethylrhodamine isothiocyanate-conjugated donkey anti-mouse IgG. The cells were analyzed by fluorescence microscopy.

Row | Compound | Effect on hyperglycemia-induced inhibition of insulin receptor kinase activity [1] | Insulin-stimulated DNA synthesis (HIRcB cells [3]) | DNA synthesis in insulin-stimulated cells (HIRcB cells [3]) | also measured
1 | CC1CNCCN1S(=O)(=O)c1cccc2cnccc12 (stereo not drawn) [H7] | is inhibited | – | – | –
2 | RFARKGALRQKNV [peptide 19-31] | – | – | – | Reversal of high glucose inhibition of insulin-stimulated DNA synthesis (BrDU incorporation) (HIRcB cells [2]): partially reversed inhibition of DNA synthesis
3 | CCCCCCCCCCCCCC(=O)O[C@@H]1[C@@H](C)[C@@]2(O)[C@@H](C=C(CO)C[C@]3(O)C(=O)C(C)=C[C@@H]23)[C@@H]2C(C)(C)[C@]12OC(C)=O [Phorbol ester] | – | – | – | Increase of insulin receptor phosphorylation (insulin receptor): 1.5 fold
4 | DDLHPSFPEVS (also: cyclized; listed as Homo sapiens) [Ser-1270] | – | significantly increased insulin-stimulated DNA synthesis | slightly increased DNA synthesis | Increase in DNA synthesis compared between the two injected peptides (HIRcB cells [3]; normal and high glucose, in each instance): greater than in Ser-1035 peptide-injected cells
5 | polymyxin B | is inhibited | – | – | –
6 | KTVNESASLRE (also: cyclized; listed as Homo sapiens) [Ser-1035] | – | significantly increased insulin-stimulated DNA synthesis | slightly increased DNA synthesis | –
